Source: ChEMBL document CHEMBL3886997, “Biaryl- or heterocyclic biaryl-substituted cyclohexene derivative compounds as CETP inhibitors” (2016)
pIC50: −log10 of the molar value.

Biological target: T1, Cholesteryl ester transfer protein (Homo sapiens, UniProt P11597)
T1 sequence (P11597 whole entry): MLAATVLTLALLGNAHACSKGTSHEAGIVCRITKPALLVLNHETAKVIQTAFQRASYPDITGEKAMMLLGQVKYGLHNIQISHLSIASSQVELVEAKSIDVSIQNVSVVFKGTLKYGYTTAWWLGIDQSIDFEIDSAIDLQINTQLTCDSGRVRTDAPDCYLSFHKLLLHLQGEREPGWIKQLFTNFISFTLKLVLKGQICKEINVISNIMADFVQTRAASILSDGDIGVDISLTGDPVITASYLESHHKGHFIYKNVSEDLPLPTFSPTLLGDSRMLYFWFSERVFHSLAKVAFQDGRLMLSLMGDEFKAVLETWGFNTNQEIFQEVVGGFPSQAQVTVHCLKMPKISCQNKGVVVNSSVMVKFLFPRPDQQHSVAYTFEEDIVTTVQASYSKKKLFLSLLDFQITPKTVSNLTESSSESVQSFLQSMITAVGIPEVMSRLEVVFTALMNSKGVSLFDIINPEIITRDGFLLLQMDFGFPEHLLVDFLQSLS
Assay: Cholesteryl Ester Transfer Assay: As a protein source for cholesteryl ester transfer, plasma from healthy persons was used, and as a cholesteryl ester receptor, LDL from healthy persons was used. Samples were treated with each test compound to final concentrations of 16, 80, 400, 2000 and 10000 nM and analyzed in duplicate. For the cholesteryl ester transfer test, 20 μl of plasma, 50 μl of LDL (0.25 mg/ml) and 50 μl of rHDL-agarose (0.25 mg/ml) were added, and a solution containing a test compound was added, followed by reaction at 37° C. Then, centrifugation was performed at 4° C. for 3 minutes to stop the reaction, and 150 μl of the supernatant was taken and transferred to a 96-well plate for radioactivity measurement, and the radioactivity of the plate was measured with a beta-ray detector.
Format: cell-free

pIC50 | SMILES
8.04 | COc1cc(C(F)(F)F)c(-c2ccc(C(=O)O)cc2F)cc1C1=C(CN2C(=O)O[C@H](c3cc(C(F)(F)F)cc(C(F)(F)F)c3)[C@@H]2C)CC(C)(C)CC1
7.91 | COc1cc(C(F)(F)F)c(-c2ccc(C(=O)O)cc2Cl)cc1C1=C(CN2C(=O)O[C@H](c3cc(C(F)(F)F)cc(C(F)(F)F)c3)[C@@H]2C)CC(C)(C)CC1
